Laboratory results taken from patent US20030181434A1, “AlphaAED and betaAED regulation of nuclear transcription, gene regulation, and/or gene expression” (priority 2002, published 2003).

Tests used:
PPARγ = test: Western blot of PPARγ level in Dunning R3327 AT-1 rat prostate tumors after treatment; assay type: in vivo; details: untreated control = 100 R.A.U.
Excerpt: (§1) Dunning R3327, AT-1, rat prostate cancer, is a completely hormone-refractory tumor cell line. […] It lacks measurable quantities of receptor for androgens and estrogens. The clinical behavior of this tumor is not influenced by presence or absence of sex steroids (Isaacs et al, Prostate 9:261-281 (1986)).
(§2) After an initial passage in young male rats, the tumor was implanted dorsally into young intact (not castrated) male Copenhagen-Fischer rats (Copenhagen, Denmark) of approximately 250 grams. Tumor transplants were allowed to grow until palpable and visible and reached a mean size of 10 mm in diameter prior to treatment. The vehicle for the drug was Polyethylene glycol 400 and ethanol 1:1. The drug was injected adjacent to the tumor. […]
(§3) Thawed tumors were homogenized in ice cold lysis-buffer (160 mM NaCl, 10 mM […], 2 mM […], 0.5% Triton X-100, 100 μg/ml phenylmetylsulfonyl fluoride, 1 μg/ml leupeptin and 2 μg/ml aprotinin), placed on ice for 15 minutes and following clarification centrifuged for 10 minutes at 13,000 g. Protein content of homogenates were determined by Lowry assay Q.
(§4) Protein in lysates ([…]) were separated by electrophoresis using 8% SDS-PAGE, the isolated proteins were transferred onto a nitrocellulose membrane (Amersham) in a trans-blot electrophoretic transfer cell (Bio-Rad Laboratories). […] Optical density was measured densitometrically. […]

NF-κB = system: NF-κB
Excerpt: as §1, §2, §3, §4

COX-2 = test: Western blot of COX-2 level in Dunning R3327 AT-1 rat prostate tumors after treatment; assay type: in vivo; details: untreated control = 100 R.A.U.
Excerpt: as §1, §2, §3, §4

[1] = AT-1 tumor samples at 19 days, βAED single 80 mg dose, or αAED 10 mg then βAED 80 mg after 96 hours
[2] = AT-1 tumor samples, 96 hours after single 10 mg dose injected adjacent to tumor

Structure (SMILES)	PPARγ level, mean value (PPARγ; [1]) [R.A.U.]	NF-κB level, mean value (NF-κB; AT-1 tumor samples at 19 days after single 80 mg dose, untreated control = 100 R.A.U.) [R.A.U.]	COX-2 level, mean value (COX-2; [1]) [R.A.U.]	PPARγ level, mean value (PPARγ; [2]) [R.A.U.]	effect on levels of NF-κB (in words) (NF-κB; finding stated in the description, no value given)	COX-2 level, mean value (COX-2; [2]) [R.A.U.]
C[C@]12CC[C@H]3[C@@H](CC=C4C[C@@H](O)CC[C@@]43C)[C@@H]1CC[C@@H]2O [βAED, Δ5-Androstene-3β, 17β-diol]	47	68±13.6	135			
C[C@]12CC[C@H]3[C@@H](CC=C4C[C@@H](O)CC[C@@]43C)[C@@H]1CC[C@H]2O [αAED, Δ5-Androstene-3β, 17α-diol]				190	increases	203
